# Source: patent US10000487B2, “Heterocyclic compounds that inhibit the kinase activity of Mnk useful for treating various cancers” (eFFECTOR Therapeutics, Inc., priority 2015, dated 2018)
# What was measured:
# recombinant MNK2 = recombinant MNK2 (Homo sapiens (Human), UniProt Q9HBH9); assay: MNK biochemical enzymatic assay (ADP-Glo), MNK2; details: 3 nM MNK2, 10 μM ATP
# Description: (§1) Compounds are screened for MNK inhibition using the ADP-Glo kinase assay kit (Promega, catalogue No. V9101). All kinase reactions are performed in Reaction Buffer E (15 mM HEPES pH7.4, 20 mM NaCl, 1 mM EGTA, 10 mM MgCl2, 0.1 mg/ml BGG, and 0.02% Tween-20). Final MNK1 reactions contained 10 nM recombinant MNK1 (Life Technologies, PR9138A), 100 μM MNK substrate peptide Ac-TATKSGSTTKNR-NH2 (American Peptide Company), 300 μM ATP, and varying concentrations of the inhibitory compound of interest. Final MNK2 reactions contained 3 nM recombinant MNK2 (Life Technologies, PV5607), 50 μM MNK substrate peptide Ac-TATKSGSTTKNR-NH2 (American Peptide Company), 10 μM ATP, and varying concentrations of the inhibitory compound of interest. Final DMSO concentration in each reaction is 1%.
# (§2) Kinase reactions are carried out in 96-well half-area white flat-bottom polystyrene plates in a final volume of 25 μl. MNK1/2 enzymes are pre-incubated with compound and peptide substrate for 5 minutes prior to the addition of ATP. After the addition of ATP, kinase reactions are incubated at room temperature for 40 minutes. Reactions are subsequently stopped by the addition of 25 μl of ADP-Glo Reagent and incubating for an additional 40 minutes. The final luminescent signal used for kinase activity readout is produced by the addition of 45 μl of Kinase Detection Reagent (ADP-Glo kit, Promega) and incubating for 40 minutes. The luminescent signal is detected using a Victor 2 multilabel counter (Perkin Elmer) and the concentration of compound necessary to achieve inhibition of enzyme activity by 50% (IC50) is calculated using signals from an 8-point compound dilution series.
# Phosphorylated eIF4E = assay: peIF4E signaling cellular assay (CisBio HTRF); assay type: cell-based; details: 2 hrs incubation at 37° C.
# Description: Phosphorylated eIF4E is assayed using the CisBio peIF4E HTRF® assay kit (CisBio, catalogue No. 64EF4PEG). Cells are plated in 96-well tissue-culture treated plate in appropriate growth medium (90 μL). Compounds (10×) are diluted using 3-fold serial dilutions in cell culture medium and added to cells. Plates are incubated for 2 hrs at 37° C. The cell supernatant is carefully removed either by aspirating supernatant or by flicking the plate. Immediately 50 μL of supplemented lysis buffer (1×) is added and incubated for at least 30 minutes at room temperature under shaking. After homogenization by pipeting up and down, 16 μL of cell lysate is transferred from the 96-well cell-culture plate to a 384-well small volume white plate. 4 μL of premixed antibody solutions (vol/vol) is prepared in the detection buffer and added. The plate is covered with a plate sealer and incubated overnight at room temperature. The fluorescence emissions at two different wavelengths are read (665 nm and 620 nm) on a Wallac Victor2. Emission ratios are converted into percent inhibitions and imported into GraphPad Prism software. […] IC50 values are determined using a nonlinear regression model available in GraphPad Prism 5.
# recombinant MNK1 = recombinant MNK1 (Homo sapiens (Human), UniProt Q9BUB5); assay: MNK biochemical enzymatic assay (ADP-Glo), MNK1; design: key to MNK1 IC50: IC50 values of less than 0.01 μM are labelled as “+++”; from 0.01 to 0.10 μM are labelled as “++”; from 0.1 to 10 μM are labelled as “+”; Inactive: greater than 10 μM are labelled inactive; details: 10 nM MNK1, 300 μM ATP
# Description: as §1, §2
# Chain of recombinant MNK2 (Q9HBH9 whole entry): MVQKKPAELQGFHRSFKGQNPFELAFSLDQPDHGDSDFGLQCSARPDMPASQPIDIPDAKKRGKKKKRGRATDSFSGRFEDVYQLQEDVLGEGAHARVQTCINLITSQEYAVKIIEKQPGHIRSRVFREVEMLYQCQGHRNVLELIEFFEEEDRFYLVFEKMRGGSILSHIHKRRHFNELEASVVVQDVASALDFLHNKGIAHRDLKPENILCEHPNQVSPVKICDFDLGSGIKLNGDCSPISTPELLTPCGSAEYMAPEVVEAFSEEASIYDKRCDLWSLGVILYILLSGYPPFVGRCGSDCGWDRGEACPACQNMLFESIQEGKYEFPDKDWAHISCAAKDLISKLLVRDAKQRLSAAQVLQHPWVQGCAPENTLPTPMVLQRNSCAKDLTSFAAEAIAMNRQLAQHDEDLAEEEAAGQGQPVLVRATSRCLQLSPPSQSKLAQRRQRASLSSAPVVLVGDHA
# Chain of recombinant MNK1 (Q9BUB5 whole entry): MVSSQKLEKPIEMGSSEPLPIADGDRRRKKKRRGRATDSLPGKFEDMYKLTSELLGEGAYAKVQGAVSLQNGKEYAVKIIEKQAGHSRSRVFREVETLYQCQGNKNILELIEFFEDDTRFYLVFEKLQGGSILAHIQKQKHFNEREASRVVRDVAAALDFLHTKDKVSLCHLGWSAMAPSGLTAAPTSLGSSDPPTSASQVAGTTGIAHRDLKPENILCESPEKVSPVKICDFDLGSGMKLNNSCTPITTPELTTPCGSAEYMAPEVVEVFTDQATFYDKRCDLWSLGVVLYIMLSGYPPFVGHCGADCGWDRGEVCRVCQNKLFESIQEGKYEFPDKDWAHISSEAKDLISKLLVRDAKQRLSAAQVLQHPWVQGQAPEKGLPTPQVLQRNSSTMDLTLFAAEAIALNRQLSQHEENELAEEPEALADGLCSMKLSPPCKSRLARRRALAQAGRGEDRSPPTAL
IC50 (recombinant MNK2) [µM],IC50 (Phosphorylated eIF4E) [µM],IC50 (recombinant MNK1) [µM],MNK1 IC50 (recombinant MNK1),SMILES
< 0.01,0.01 to 0.1,,,"O=C1NC2(CCCCC2)n2c1c(Cl)cc(Nc1ncncn1)c2=O [compound 11, 6′-((1,3,5-triazin-2-yl)amino)-8′-chloro-2′H-spiro[cyclohexane-1,3′-imidazo[1,5-a]pyridine]-1′,5′-dione]"
< 0.01,0.1 to 100,0.01 to 0.1,,"O=C1NC2(CCCCC2)n2c1c(Cl)cc(Nc1cn[nH]n1)c2=O [compound 9, 6′-((2H-1,2,3-triazol-4-yl)amino)-8′-chloro-2′H-spiro[cyclohexane-1,3′-imidazo[1,5-a]pyridine]-1′,5′-dione]"
0.01 to 0.1,,0.1 to 10,,"O=C1NC2(CCCCC2)n2c1c(Cl)cc(Nc1cncs1)c2=O [compound 5, 8′-chloro-6′-(thiazol-5-ylamino)-2′H-spiro[cyclohexane-1,3′-imidazo[1,5-a]pyridine]-1′,5′-dione]"
0.1 to 10,0.1 to 100,0.1 to 10,,"O=C1NC2(CCCCC2)n2c1c(Cl)cc(Nc1nnco1)c2=O [compound 8, 6′-((1,3,4-oxadiazol-2-yl)amino)-8′-chloro-2′H-spiro[cyclohexane-1,3′-imidazo[1,5-a]pyridine]-1′,5′-dione]"
< 0.01,0.1 to 100,,,"Cn1ncc(Nc2cc(Cl)c3n(c2=O)C2(CCCCC2)NC3=O)n1 [compound 7, 8′-chloro-6′-((2-methyl-2H-1,2,3-triazol-4-yl)amino)-2′H-spiro[cyclohexane-1,3′-imidazo[1,5-a]pyridine]-1′,5′-dione]"
< 0.01,0.1 to 100,,,"O=C1NC2(CCCCC2)n2c1c(Cl)cc(Nc1cnsn1)c2=O [compound 6, 6′-((1,2,5-thiadiazol-3-yl)amino)-8′-chloro-2′H-spiro[cyclohexane-1,3′-imidazo[1,5-a]pyridine]-1′,5′-dione]"
< 0.01,0.1 to 100,0.01 to 0.1,,"O=C1NC2(CCCCC2)n2c1c(Cl)cc(Nc1ncns1)c2=O [2F, 6′-((1,2,4-thiadiazol-5-yl)amino)-8′-chloro-2′H-spiro[cyclohexane-1,3′-imidazo[1,5-a]pyridine]-1′,5′-dione]"
0.01 to 0.1,,0.1 to 10,,"O=C1NC2(CCCCC2)n2c1c(Cl)cc(Nc1ncn[nH]1)c2=O [4F, 6′-((1H-1,2,4-triazol-5-yl)amino)-8′-chloro-2′H-spiro[cyclohexane-1,3′-imidazo[1,5-a]pyridine]-1′,5′-dione]"
0.01 to 0.1,0.1 to 100,0.1 to 10,,"O=C1NC2(CCCCC2)n2c1c(Cl)cc(Nc1nncs1)c2=O [1F, 6′-((1,3,4-thiadiazol-2-yl)amino)-8′-chloro-2′H-spiro[cyclohexane-1,3′-imidazo[1,5-a]pyridine]-1′,5′-dione]"
0.01 to 0.1,0.1 to 100,,Inactive,"O=C1NC2(CCCCC2)n2c1c(Cl)cc(Nc1cnns1)c2=O [compound 3, 6′-((1,2,3-thiadiazol-5-yl)amino)-8′-chloro-2′H-spiro[cyclohexane-1,3′-imidazo[1,5-a]pyridine]-1′,5′-dione]"
0.01 to 0.1,0.1 to 100,,,"Nc1cc(Nc2cc(Cl)c3n(c2=O)C2(CCCCC2)NC3=O)ccn1 [compound 13, 6′-((2-aminopyridin-4-yl)amino)-8′-chloro-2′H-spiro[cyclohexane-1,3′-imidazo[1,5-a]pyridine]-1′,5′-dione]"
